Earlier results as cited in patent US6439069B1, “Method and apparatus for detecting subterranean termites” (priority 1999, dated 2002).

Columns and labels:
subterranean termites = conditions: for 20-30 years or more
foraging termites = conditions: food sources impregnated with 0.5% of the substance

SMILES	control of subterranean termites (subterranean termites) [%]	palatability of impregnated food source (foraging termites)
ClC1=C(Cl)C2(Cl)C3C(Cl)C(Cl)CC3C1(Cl)C2(Cl)Cl (stereo not drawn) [chlordane]	100	
O.O.O.O.O=BOB1OB(OB=O)OB2OB([O-])OB([O-])OB(O1)O2.[Na+].[Na+] [disodium octaborate tetrahydrate]		acceptably palatable
ClC1=C(Cl)C2(Cl)C3C(Cl)C=CC3C1(Cl)C2(Cl)Cl (stereo not drawn) [heptachlor]	100	
